Here are results for ten molecules from ChEMBL document CHEMBL1135126, “Identification of novel antifungal nonapeptides through the screening of combinatorial peptide libraries based on a hexapeptide motif” (Bioorg Med Chem Lett, 2002).

pIC50: −log10 of the molar value. ≈ marks a conversion by molar mass, not a printed value.

For one experiment, the system named is Candida albicans. Kind of experiment: Concentration that substantially inhibit growth of Candida albicans. Type of experiment: functional, organism-based.
In another experiment the test system is Cryptococcus neoformans. The experiment can be described thus: Concentration that substantially inhibit the growth of Cryptococcus neoformans. Type of experiment: functional.

What is called pIC50 is the IC50 on a negative log10 scale, so that one unit is a factor of ten. In general, MIC refers to the smallest concentration in the dilution series that meets the test's criterion for growth inhibition. Low values mean a more susceptible organism, high ones a less susceptible organism. As to `CC[C@H](C)[C@H](NC(=O)[C@@H](Cc1ccccc1)NC(=O)[C@@H](Cc1c[nH]c2ccccc12)NC(=O)[C@@H](N)CCCN=C(N)N)C(=O)N[C@H](Cc1ccccc1)C(=O)N[C@@H](Cc1c[nH]cn1)C(=O)N[C@@H](CCCCN)C(=O)N[C@@H](CCCCN)C(=O)N[C@@H](CCC(N)=O)C(N)=O`, the pIC50 in the experiment on Candida albicans is 5.59. The minimum inhibitory concentration (MIC) against Cryptococcus neoformans amounted to 2.37 µM (≈ 3.05 µg/mL).

`CC[C@H](C)[C@H](NC(=O)[C@@H](Cc1ccccc1)NC(=O)[C@@H](Cc1c[nH]c2ccccc12)NC(=O)[C@@H](N)CCCN=C(N)N)C(=O)N[C@H](Cc1ccccc1)C(=O)N[C@@H](Cc1c[nH]cn1)C(=O)N[C@@H](CCCCN)C(=O)N[C@@H](CCCN=C(N)N)C(=O)N[C@@H](CC(N)=O)C(N)=O` showed a pIC50 with Candida albicans of 5.33. Further, the MIC against Cryptococcus neoformans is 2.39 µM (≈ 3.11 µg/mL).

In the experiment on Candida albicans, `CC[C@H](C)[C@H](NC(=O)[C@H](CCCCN)NC(=O)[C@H](CCCCN)NC(=O)[C@H](Cc1c[nH]cn1)NC(=O)[C@@H](Cc1ccccc1)NC(=O)[C@@H](NC(=O)[C@@H](Cc1ccccc1)NC(=O)[C@@H](Cc1c[nH]c2ccccc12)NC(=O)[C@@H](N)CCCN=C(N)N)[C@@H](C)CC)C(N)=O` had a negative-log IC50 (pIC50) of 5.78. 2.4 µM (≈ 3.06 µg/mL) was the least that counted as inhibitory in the experiment on Cryptococcus neoformans (MIC).

In the experiment on Candida albicans, `CC[C@H](C)[C@H](NC(=O)[C@@H](Cc1ccccc1)NC(=O)[C@@H](Cc1c[nH]c2ccccc12)NC(=O)[C@@H](N)CCCN=C(N)N)C(=O)N[C@H](Cc1ccccc1)C(=O)N[C@@H](Cc1c[nH]cn1)C(=O)N[C@@H](CCCCN)C(=O)N[C@@H](CCCN=C(N)N)C(=O)N[C@@H](Cc1ccc(O)cc1)C(N)=O` gave a pIC50 of 5.15. Besides, in the experiment on Cryptococcus neoformans, inhibition of growth (MIC) required 4.62 µM (≈ 6.24 µg/mL).

Molecule `CC[C@H](C)[C@H](NC(=O)[C@@H](Cc1ccccc1)NC(=O)[C@@H](Cc1c[nH]c2ccccc12)NC(=O)[C@@H](N)CCCN=C(N)N)C(=O)N[C@H](Cc1ccccc1)C(=O)N[C@@H](Cc1c[nH]cn1)C(=O)N[C@@H](CCCCN)C(=O)N[C@@H](CCCN=C(N)N)C(=O)N[C@@H](CC(=O)O)C(N)=O` gave a pIC50 in the experiment on Candida albicans of 5.11. In the experiment with Cryptococcus neoformans, this molecule showed a minimal inhibitory concentration (MIC) of 4.79 µM (≈ 6.24 µg/mL).

In the experiment with Candida albicans, `CC[C@H](C)[C@H](NC(=O)[C@@H](Cc1ccccc1)NC(=O)[C@@H](Cc1c[nH]c2ccccc12)NC(=O)[C@@H](N)CCCN=C(N)N)C(=O)N[C@H](Cc1ccccc1)C(=O)N[C@@H](Cc1c[nH]cn1)C(=O)N[C@@H](CCCCN)C(=O)N[C@@H](CCCCN)C(=O)N[C@@H](CCSC)C(N)=O` had a pIC50 of 5.58. In addition, the MIC in the experiment with Cryptococcus neoformans is 2.37 µM (≈ 3.06 µg/mL).

With `CC[C@H](C)[C@H](NC(=O)[C@@H](Cc1ccccc1)NC(=O)[C@@H](Cc1c[nH]c2ccccc12)NC(=O)[C@@H](N)CCCN=C(N)N)C(=O)N[C@H](Cc1ccccc1)C(=O)N[C@@H](Cc1c[nH]cn1)C(=O)N[C@@H](CCCCN)C(=O)N[C@@H](CCCN=C(N)N)C(=O)N[C@@H](CCC(=O)O)C(N)=O`, the negative logarithm of the IC50 (pIC50) in the experiment on Candida albicans was 5.37. In the experiment with Cryptococcus neoformans, the MIC worked out at 4.74 µM (≈ 6.25 µg/mL).

In the experiment with Candida albicans, `CC[C@H](C)[C@H](NC(=O)[C@@H](Cc1ccccc1)NC(=O)[C@@H](Cc1c[nH]c2ccccc12)NC(=O)[C@@H](N)CCCN=C(N)N)C(=O)N[C@H](Cc1ccccc1)C(=O)N[C@@H](Cc1c[nH]cn1)C(=O)N[C@@H](CCCCN)C(=O)N[C@@H](CCCN=C(N)N)C(=O)N[C@@H](CCSC)C(N)=O` had a pIC50 of 5.34. The molecule further gave a minimum inhibitory concentration (MIC) against Cryptococcus neoformans of 2.36 µM (≈ 3.11 µg/mL).

For the molecule `CC[C@H](C)[C@H](NC(=O)[C@@H](Cc1ccccc1)NC(=O)[C@@H](Cc1c[nH]c2ccccc12)NC(=O)[C@@H](N)CCCN=C(N)N)C(=O)N[C@H](Cc1ccccc1)C(=O)N[C@@H](Cc1c[nH]cn1)C(=O)N[C@@H](CCCCN)C(=O)N[C@@H](CCCCN)C(=O)N[C@@H](Cc1c[nH]c2ccccc12)C(N)=O`, the negative logarithm of the IC50 (pIC50) with Candida albicans was 5.58. In addition, in the experiment on Cryptococcus neoformans, the minimum inhibitory concentration (MIC) was found to be 1.14 µM (≈ 1.54 µg/mL).

In turn, `CC[C@H](C)[C@H](NC(=O)[C@@H](Cc1ccccc1)NC(=O)[C@@H](Cc1c[nH]c2ccccc12)NC(=O)[C@@H](N)CCCN=C(N)N)C(=O)N[C@H](Cc1ccccc1)C(=O)N[C@@H](Cc1c[nH]cn1)C(=O)N[C@@H](CCCCN)C(=O)N[C@@H](CCCCN)C(=O)N[C@@H](CCCN=C(N)N)C(N)=O` gave a negative logarithm of the IC50 (pIC50) in the experiment with Candida albicans of 5.79. Besides, 2.32 µM (≈ 3.05 µg/mL) was the least that counted as inhibitory against Cryptococcus neoformans (MIC).
